Results from patent US5248680A, “Zwitterionic compounds and their n-halo derivatives for use in the treatment of clinical conditions” (Bloomfield D.A., priority 1990, dated 1993).
Like-named read-outs stand apart in the source and are kept apart here. Values belong to the molecule of their own block, whether it stands above or below them.

Tests used:
[1] = system: myeloperoxidase; test: Myeloperoxidase activity of neutrophils after preincubation with zwitterion; type: cell-based, human; details: mean ± S.E.M.; for Myeloperoxidase activity of normal neutrophils: 10 mM zwitterionic compound; for Myeloperoxidase activity of neutrophils: 40 mM taurine
Source text: (§1) Patients were selected with mild to moderate plaque-type psoriasis on the basis of clinical and histological evidence of disease. Normal volunteers were selected from laboratory personnel without personal or family history of inflammatory disease. Disease control groups included: a) patients with eczema, acne and dermatitis herpetiformis; and b) patients with Crohn's disease and ulcerative colitis.
(§2) Blood samples from each subject were drawn into sodium heparin Vacutainers® (Vacutainer is a Trade Mark). The inflammatory cells (neutrophils) were isolated by dextran sedimentation and FICOLL-PAQUE®(FICOLL-PLAQUE is a Trade Mark) gradient centrifugation. Viability and purity were assessed by fluorescence microscopy, using ethidium bromide and acridine orange staining.

[2] = system: peripheral blood neutrophils; test: Chemiluminescence (reactive oxidant production) of peripheral blood neutrophils stimulated with calcium ionophore; type: cell-based; details: Homo sapiens, Neutrophil, mean ± S.E.M.; for activity at 10000 µM: 10 mM zwitterionic compound, normal neutrophils, read-out: Chemiluminescence activity of normal neutrophils; for activity at 40000 µM: 40 mM taurine, read-out: Chemiluminesence production by neutrophils
Source text: Patients were selected with mild to moderate plaque-type psoriasis on the basis of clinical and histological evidence of disease. Normal volunteers were selected from laboratory personnel without personal or family history of inflammatory disease. Disease control groups included: a) patients with eczema, acne and dermatitis herpetiformis; and b) patients with Crohn's disease and ulcerative colitis. Blood samples from each subject were drawn into sodium heparin Vacutainers® (Vacutainer is a Trade Mark). The inflammatory cells (neutrophils) were isolated by dextran sedimentation and FICOLL-PAQUE®(FICOLL-PLAQUE is a Trade Mark) gradient centrifugation. Viability and purity were assessed by fluorescence microscopy, using ethidium bromide and acridine orange staining. […] Chemiluminescence activity of the peripheral blood neutrophils was tested using the method of Bloomfield, F. J. and Young, M. M. (Inflammation, (1982) 6, 257, hereby incorporated by reference), using calcium ionophore (2μ Molar) as stimulant instead of opsonized zymosan. Chemiluminescence is a measure of the production of reactive oxidants by neutrophils in response to an inflammatory stimulus. It was observed that there was significant reduction in chemiluminescence activity by neutrophils in the taurine-treated and HEPES-treated cells compared to control cells in all groups.

[3] = system: leukotriene B4; test: Degradation of standard leukotriene B4 measured by radioimmunoassay; type: biochemical; details: data not shown
Source text: (§3) It was therefore proposed to test the hypothesis that HEPES could inactivate leukotriene B4 by indirect stimulation of MPO leading to increased production of hypochlorous acid from cellular hydrogen peroxide.

[4] = system: monocytes; test: Leukotriene B4 in stimulated monocytes; type: cell-based, human; details: preincubation with 10 mM HEPES or 40 mM taurine; data not shown
Source text: as §3

[5] = system: myeloperoxidase; test: Binding of zwitterion to myeloperoxidase (preliminary studies)
[6] = system: neutrophils; test: Hypochlorous acid production by neutrophils; type: cell-based; details: Homo sapiens, Neutrophil, 40 mM taurine, mean ± S.E.M.
Source text: as §1, §2

[7] = system: neutrophils; test: Leukotriene B4 in supernatants of stimulated neutrophils; type: cell-based, human; details: Homo sapiens, Neutrophil, 40 mM taurine, mean ± S.E.M., read-out: Leukotriene B4 production by neutrophils
Source text: as §1, §2, §3
For the methodology used in the in vitro studies hereinafter described reference should be made to McLoughlin, D. M. et al. Biochem. Soc. Trans. (1991) 19:73-78 hereby incorporated by reference, except where otherwise stated.

[8] = system: catalase; test: Catalase activity of neutrophils after preincubation; type: cell-based, human; details: neutrophils preincubated with HEPES or taurine; data not shown
[9] = system: carrageenan induced paw oedema; test: Carrageenan-induced paw oedema in rats; type: in vivo, rat; details: for percentage increase in paw volume: 1 h after carrageenan, mean ± S.E.M.; for reduction in paw oedema: versus control
Experimental: The studies were conducted on inbred Wistar strain albino rats (120-180 g) of either sex. The rats were housed in colony cages at an ambient temperature of 25°±2° C. and fed on standard pellet chow. The rats were anaesthetized using pentobarbitone sodium, their hind paws were marked and the volume measured. […] The control animals were injected with 10 μl of 0.9% saline solution. […] One hour following the carrageenan injection the hind paw volume was measured again. A 5 ml blood sample was taken from each animal into sodium heparin Vacutainers. Chemiluminescence activity was assayed in the PBMC isolated from each animal.
These studies were also conducted on inbred Wistar strain albino rats (120-180 g) of either sex. The rats were anaesthetized using pentobarbitone sodium prior to marking each hind paw and measuring paw volume. […] The control animals received 0.5 ml of 0.9% NaCl subcutaneously. 30 min after the injections were administered, paw oedema was induced using carrageenan. One hour following carrageenan administration the hind paw volume was measured. A 5 ml blood sample was taken from each animal into sodium heparin Vacutainers and used for chemiluminescence measurement.

[10] = system: neutrophils; test: Degranulation of lysosomal enzymes by neutrophils stimulated with calcium ionophore; type: cell-based, human; details: result in words; taurine data not shown
Source text: as §1, §2
Stimulation of the inflammatory process in neutrophils, not only activates the respiratory burst, but as a consequence, is also associated with release of lysosomal enzymes from the cells in a process called degranulation. Degranulation of lysosomal enzymes was stimulated in neutrophils from each group of subjects, using calcium ionophore as inflammatory stimulant.

SMILES: O=S(=O)(O)CCCN1CCN(CCO)CC1 [(H)EPPS, N-2-hydroxyethylpiperazine-N'3-propanesulphonic acid]
Myeloperoxidase activity of normal neutrophils [1]: marked effect on MPO activity | Myeloperoxidase activity of normal neutrophils ([1]; 10000 µM): 348 ± 15.1 percentage activity of control | activity at 10000 µM [2]: 50.9 ± 7.38%

SMILES: NC(=O)CNCCS(=O)(=O)O [ACES, N-(2-acetamido)-2-aminoethanesulphonic acid]
Myeloperoxidase activity of normal neutrophils [1]: marked effect on MPO activity | Myeloperoxidase activity of normal neutrophils ([1]; listed as ACE, 10000 µM): 166 ± 18.2 percentage activity of control | activity at 10000 µM [2]: 12.9 ± 2.75%

SMILES: NC(=O)CN(CC(=O)O)CC(=O)O [ADA, N-(2-acetamido)iminodiacetic acid]
Myeloperoxidase activity of normal neutrophils [1]: 214 ± 32.3 percentage activity of control | activity at 10000 µM [2]: 1.45 ± 0.27%

SMILES: O=S(=O)(O)CCN(CCO)CCO [BES, N,N-bis(2-hydroxyethyl)-2-aminoethanesulphonic acid]
Myeloperoxidase activity of normal neutrophils [1]: lesser effect on MPO stimulation | Myeloperoxidase activity of normal neutrophils ([1]; 10000 µM): 138 ± 14.1 percentage activity of control | activity at 10000 µM [2]: 4.95 ± 0.93%

SMILES: O=S(=O)(O)CCCNC1CCCCC1 [CAPS, 3-(cyclohexylamino)propanesulphonic acid]
Myeloperoxidase activity of normal neutrophils [1]: little effect | Myeloperoxidase activity of normal neutrophils ([1]; 10000 µM): 115 ± 3.6 percentage activity of control | activity at 10000 µM [2]: 87.9 ± 8.87%

SMILES: O=S(=O)(O)CCNC1CCCCC1 [CHES, 2-(cyclohexylamino)ethanesulphonic acid]
Myeloperoxidase activity of normal neutrophils [1]: little effect | Myeloperoxidase activity of normal neutrophils ([1]; 10000 µM): 120 ± 4.8 percentage activity of control | activity at 10000 µM [2]: 68.4 ± 6.36%

SMILES: O=S(=O)(O)CCN1CCOCC1 [MES, 2(N-morpholino)ethanesulphonic acid]
Myeloperoxidase activity of normal neutrophils [1]: marked effect on MPO activity | Myeloperoxidase activity of normal neutrophils ([1]; 10000 µM): 264 ± 15.9 percentage activity of control | activity at 10000 µM [2]: 3.15 ± 0.67%

SMILES: O=S(=O)(O)CCCN1CCOCC1 [MOPS, 3-(N-morpholino)propanesulphonic]
Myeloperoxidase activity of normal neutrophils [1]: lesser effect on MPO stimulation | Myeloperoxidase activity of normal neutrophils ([1]; 10000 µM): 134 ± 13.4 percentage activity of control | activity at 10000 µM [2]: 7.27 ± 1.53%

SMILES: O=S(=O)(O)CCN1CCN(CCS(=O)(=O)O)CC1 [PIPES, piperazine-N,N'bis(2-ethanesulphonic acid]
Myeloperoxidase activity of normal neutrophils [1]: marked effect on MPO activity | Myeloperoxidase activity of normal neutrophils ([1]; 10000 µM): 199 ± 23.1 percentage activity of control | activity at 10000 µM [2]: 4.08 ± 0.97%

SMILES: O=S(=O)(O)CCNC(CO)(CO)CO [TES, N-N[tris(hydroxymethyl)-methyl]-2-aminoethanesulphonic acid]
Myeloperoxidase activity of normal neutrophils [1]: lesser effect on MPO stimulation | Myeloperoxidase activity of normal neutrophils ([1]; 10000 µM): 129 ± 20.1 percentage activity of control | activity at 10000 µM [2]: 15.6 ± 2.41%

SMILES: OCl [hypochlorous acid, reference compound]
degradation of standard leukotriene B4 [3]: cause degradation of standard leukotriene B4

SMILES: O=S(=O)(O)CCNCl [taurine chloramine]
degradation of standard leukotriene B4 [3]: cause degradation of standard leukotriene B4

binding to the enzyme (MPO) [5]: did not bind to the enzyme
SMILES: NCCS(=O)(=O)O [taurine, 2-aminoethanesulphonic acid]
reduction of leukotriene B4 in monocytes [4]: also demonstrated in monocytes | Myeloperoxidase activity of neutrophils ([1]; Normal): 564 ± 38.3 percentage activity of control | Myeloperoxidase activity of neutrophils ([1]; Psoriasis): 591 ± 61.8 percentage activity of control | Myeloperoxidase activity of neutrophils ([1]; disease controls (a)): 473 ± 33.7 percentage activity of control | Myeloperoxidase activity of neutrophils ([1]; disease controls (b)): 485 ± 49.2 percentage activity of control | activity at 40000 µM ([6]; Normal): 152 ± 14.1% | activity at 40000 µM ([6]; Psoriasis): 167 ± 34.7% | activity at 40000 µM ([6]; disease controls (a)): 142 ± 32.1% | activity at 40000 µM ([7]; Normal): 64.8 ± 8.3% | activity at 40000 µM ([7]; Psoriasis): 66.5 ± 10.9% | activity at 40000 µM ([7]; disease controls (a)): 73.3 ± 9.95% | activity at 40000 µM ([7]; disease controls (b)): 78 ± 8.6% | activity at 40000 µM ([2]; Normal): 12.7 ± 1.77% | activity at 40000 µM ([2]; Psoriasis): 15.5 ± 2.1% | activity at 40000 µM ([2]; disease controls (a)): 20.3 ± 1.85% | activity at 40000 µM ([2]; disease controls (b)): 30.5 ± 8.6% | effect on catalase activity [8]: no effect on catalase activity | percentage increase in paw volume ([9]; I.C.V. 50 μg taurine): 30 ± 4 percentage increase in paw volume | percentage increase in paw volume ([9]; I.C.V. 500 μg taurine): 21 ± 8 percentage increase in paw volume | percentage increase in paw volume ([9]; S.C. 500 μg taurine): 27 ± 2 percentage increase in paw volume | reduction in paw oedema ([9]; i.c.v. 50 μg taurine): 21% | reduction in paw oedema ([9]; i.c.v. 500 μg taurine): 54% | reduction in paw oedema ([9]; s.c. 500 μg taurine): 18% | degranulation by preincubated neutrophils compared to control cells [10]: no significant difference in degranulation
